Laboratory results: patent US4864023A, “Pyrido(3,2,1-IJ)-1,3,4-benzoxadiazine derivatives” (priority 1988, dated 1989)
In brackets after ≈: the same amount, converted by molar mass. Like-named read-outs stand apart in the source and are kept apart here.

How the values were obtained:
Assay in all cases: in vitro antibacterial activity, standard agar dilution method
Assay type in all cases: cell-based
[1] = system: Klebsiella pneumoniae FDA PCI 602; conditions: FDAPCI602, aerobic, read-out: minimum inhibitory concentration (MIC)
[2] = system: Pseudomonas aeruginosa NR 2950; conditions: NR2950, aerobic, read-out: minimum inhibitory concentration (MIC)
[3] = system: Enterobacter cloacae NR 2946; conditions: NR2946, aerobic, read-out: minimum inhibitory concentration (MIC)
[4] = system: Proteus vulgaris OX19 ATCC 6898; conditions: ATCC6898, aerobic, read-out: minimum inhibitory concentration (MIC)
[5] = system: Serratia marcescens IFO 12648; conditions: IFO12648, aerobic, read-out: minimum inhibitory concentration (MIC)
[6] = system: Enterobacter aerogenes NR 2945; conditions: Klebsiella aerogenes, NR2945, aerobic, read-out: minimum inhibitory concentration (MIC)
[7] = system: Staphylococcus aureus FDA 209P JC-1; conditions: FDA209P, read-out: minimum inhibitory concentration (MIC)
Escherichia coli NR 2630 = conditions: NR2630; Escherichia coli NR 2630; aerobic; agar dilution; read-out: minimum inhibitory concentration (MIC)
[8] = system: Staphylococcus epidermidis NR 2942; conditions: NR2942, aerobic, read-out: minimum inhibitory concentration (MIC)
[9] = system: Alcaligenes faecalis IFO 13111; conditions: IFO13111, aerobic, read-out: minimum inhibitory concentration (MIC)
[10] = system: Staphylococcus aureus Smith; conditions: read-out: minimum inhibitory concentration (MIC)
[11] = system: Bordetella bronchiseptica ATCC 4617; conditions: ATCC4617, aerobic, read-out: minimum inhibitory concentration (MIC)
[12] = system: Staphylococcus aureus NR 2855
[13] = system: Pseudomonas aeruginosa A3; conditions: aerobic, read-out: minimum inhibitory concentration (MIC)
[14] = system: Salmonella typhimurium IFO 12529; conditions: Salmonella enterica, aerobic, read-out: minimum inhibitory concentration (MIC)
[15] = system: Escherichia coli NIHJ JC-2; conditions: NIHJJC2, aerobic, read-out: minimum inhibitory concentration (MIC)
[16] = system: Proteus rettgeri ATCC 14505; conditions: Providencia rettgeri, ATCC14505, aerobic, read-out: minimum inhibitory concentration (MIC)
[17] = system: Pseudomonas stutzeri IFO 12695; conditions: Stutzerimonas stutzeri, IFO12695, aerobic, read-out: minimum inhibitory concentration (MIC)
[18] = system: Enterococcus faecalis NR 2943; conditions: NR2943, aerobic, read-out: minimum inhibitory concentration (MIC)
[19] = system: Bacillus subtilis PCI 219; conditions: PCI219, aerobic, read-out: minimum inhibitory concentration (MIC)
[20] = system: Staphylococcus epidermidis IFO 12993; conditions: IFO12993, aerobic, read-out: minimum inhibitory concentration (MIC)
[21] = system: Citrobacter freundii IFO 12681; conditions: IFO12681, aerobic, read-out: minimum inhibitory concentration (MIC)
[22] = Staphylococcus aureus FDA 209P JC-1, aerobic, agar dilution
[23] = NR2855, Staphylococcus aureus NR 2855, aerobic, agar dilution, read-out: minimum inhibitory concentration (MIC)
[24] = Staphylococcus aureus Smith, aerobic, agar dilution

Work on `CC(=O)CCN1CCN(c2c(F)cc3c(=O)c(C(=O)O)cn4c3c2OCN4C)CC1` [Example 51, 9-fluoro-3-methyl-7-oxo-10-[4-(3-oxo-n-butyl)-1-piperazinyl]-2,3-dihydro-7H-pyrido[3,2,1-ij]-1,3,4-benzoxadiazine-6-carboxylic acid] yielded an MIC [1] of 0.2 µg/mL (≈ 0.478 µM), an MIC [2] of 1.56 µg/mL (≈ 3.73 µM) and an MIC [3] of 0.05 µg/mL (≈ 0.119 µM). The MIC [4] was 0.025 µg/mL (≈ 0.0597 µM), the MIC [5] was 0.1 µg/mL (≈ 0.239 µM) and the MIC [6] was 0.025 µg/mL (≈ 0.0597 µM). For the same compound, the MIC [7, 22] was 0.2 µg/mL (≈ 0.478 µM), the MIC (Escherichia coli NR 2630) was 0.025 µg/mL (≈ 0.0597 µM) and the MIC [8] was 0.78 µg/mL (≈ 1.86 µM). The MIC [9] was 3.13 µg/mL (≈ 7.48 µM), the MIC ([10]; Staphylococcus aureus) was 0.39 µg/mL (≈ 0.932 µM) and the MIC [11] was 1.56 µg/mL (≈ 3.73 µM). It also gave an MIC [12, 23] of 1.56 µg/mL (≈ 3.73 µM), an MIC [13] of 0.1 µg/mL (≈ 0.239 µM) and an MIC [14] of 0.025 µg/mL (≈ 0.0597 µM). The MIC [15] was 0.1 µg/mL (≈ 0.239 µM), the MIC [16] was 0.2 µg/mL (≈ 0.478 µM) and the MIC [17] was 0.05 µg/mL (≈ 0.119 µM). For the same compound, the MIC [18] was 12.5 µg/mL (≈ 29.9 µM), the MIC [19] was 0.1 µg/mL (≈ 0.239 µM) and the MIC [20] was 0.78 µg/mL (≈ 1.86 µM). The MIC [21] was 0.025 µg/mL (≈ 0.0597 µM).

For `CN1COc2c(N3CCN(CCF)CC3)c(F)cc3c(=O)c(C(=O)O)cn1c23` [Example 44], the MIC [1] was 0.39 µg/mL (≈ 0.989 µM), the MIC [2] was 6.25 µg/mL (≈ 15.8 µM) and the MIC [3] was 0.2 µg/mL (≈ 0.507 µM). It also gave an MIC [4] of 0.1 µg/mL (≈ 0.254 µM), an MIC [5] of 0.39 µg/mL (≈ 0.989 µM) and an MIC [6] of 0.1 µg/mL (≈ 0.254 µM). The MIC [7, 22] was 0.78 µg/mL (≈ 1.98 µM), the MIC (Escherichia coli NR 2630) was 0.05 µg/mL (≈ 0.127 µM) and the MIC [8] was 0.39 µg/mL (≈ 0.989 µM). The MIC [9] was 1.56 µg/mL (≈ 3.96 µM), the MIC [10, 24] was 0.39 µg/mL (≈ 0.989 µM) and the MIC [11] was 0.39 µg/mL (≈ 0.989 µM). The MIC [12, 23] was 0.39 µg/mL (≈ 0.989 µM), the MIC [13] was 0.78 µg/mL (≈ 1.98 µM) and the MIC [14] was 0.2 µg/mL (≈ 0.507 µM). For the same compound, the MIC [15] was 0.2 µg/mL (≈ 0.507 µM), the MIC [16] was 1.56 µg/mL (≈ 3.96 µM) and the MIC [17] was 0.2 µg/mL (≈ 0.507 µM). The MIC [18] was 12.5 µg/mL (≈ 31.7 µM), the MIC [19] was 0.05 µg/mL (≈ 0.127 µM) and the MIC [20] was 0.78 µg/mL (≈ 1.98 µM). For the same compound, the MIC [21] was 0.2 µg/mL (≈ 0.507 µM).

Compound `CC(=O)NCC1CCN(c2c(F)cc3c(=O)c(C(=O)O)cn4c3c2OCN4C)C1` (centres unmarked) [Example 19, 10-[3-(acetylaminomethyl)-1-pyrrolidinyl]-9-fluoro-3-methyl-7-oxo-2,3-dihydro-7H-pyrido[3,2,1-ij]-1,3,4-benzoxadiazine-6-carboxylic acid] has an MIC [1] of 6.25 µg/mL (≈ 15.5 µM), an MIC [2] of 25 µg/mL (≈ 61.8 µM) and an MIC [3] of 1.56 µg/mL (≈ 3.86 µM). The MIC [4] was 0.39 µg/mL (≈ 0.964 µM), the MIC [5] was 3.13 µg/mL (≈ 7.74 µM) and the MIC [6] was 1.56 µg/mL (≈ 3.86 µM). It also gave an MIC ([7]; Staphylococcus aureus) of 0.39 µg/mL (≈ 0.964 µM), an MIC (Escherichia coli NR 2630) of 0.39 µg/mL (≈ 0.964 µM) and an MIC [8] of 0.39 µg/mL (≈ 0.964 µM). For the same compound, the MIC [9] was 6.25 µg/mL (≈ 15.5 µM), the MIC [10, 24] was 0.2 µg/mL (≈ 0.495 µM) and the MIC [11] was 6.25 µg/mL (≈ 15.5 µM). It also gave an MIC ([12]; Staphylococcus aureus, NR2855, read-out: minimum inhibitory concentration (MIC)) of 0.39 µg/mL (≈ 0.964 µM), an MIC [13] of 6.25 µg/mL (≈ 15.5 µM) and an MIC [14] of 1.56 µg/mL (≈ 3.86 µM). The MIC [15] was 1.56 µg/mL (≈ 3.86 µM), the MIC [16] was 3.13 µg/mL (≈ 7.74 µM) and the MIC [17] was 0.39 µg/mL (≈ 0.964 µM). The MIC [18] was 6.25 µg/mL (≈ 15.5 µM), the MIC [19] was 0.05 µg/mL (≈ 0.124 µM) and the MIC [20] was 0.39 µg/mL (≈ 0.964 µM). The MIC [21] was 1.56 µg/mL (≈ 3.86 µM).

`COC1CCN(c2c(F)cc3c(=O)c(C(=O)O)cn4c3c2OCN4C)C1` (centres unmarked) [Example 37, 9-fluoro-10-(3-methoxy-1-pyrrolidinyl)-3-methyl-7-oxo-2,3-dihydro-7H-pyrido[3,2,1-ij]-1,3,4-benzoxadiazine-6-carboxylic acid] gave an MIC [1] of 3.13 µg/mL (≈ 8.61 µM), an MIC [2] of 25 µg/mL (≈ 68.8 µM) and an MIC [3] of 0.2 µg/mL (≈ 0.55 µM). For the same compound, the MIC [4] was ≤ 0.0008 µg/mL, the MIC [5] was 0.78 µg/mL (≈ 2.15 µM) and the MIC [6] was 0.1 µg/mL (≈ 0.275 µM). For the same compound, the MIC [7, 22] was 0.0016 µg/mL (≈ 0.0044 µM), the MIC (Escherichia coli NR 2630) was ≤ 0.0008 µg/mL and the MIC [8] was ≤ 0.0008 µg/mL. The MIC [9] was 12.5 µg/mL (≈ 34.4 µM), the MIC [10, 24] was ≤ 0.0008 µg/mL and the MIC [11] was 1.56 µg/mL (≈ 4.29 µM). For the same compound, the MIC [12, 23] was ≤ 0.0008 µg/mL, the MIC [13] was 6.25 µg/mL (≈ 17.2 µM) and the MIC [14] was 0.2 µg/mL (≈ 0.55 µM). It also gave an MIC [15] of 0.1 µg/mL (≈ 0.275 µM), an MIC [16] of 6.25 µg/mL (≈ 17.2 µM) and an MIC [17] of 0.013 µg/mL (≈ 0.0358 µM). The MIC [18] was 3.13 µg/mL (≈ 8.61 µM), the MIC [19] was ≤ 0.0008 µg/mL and the MIC [20] was 0.025 µg/mL (≈ 0.0688 µM). It also gave an MIC [21] of 0.78 µg/mL (≈ 2.15 µM).

In the case of `CN1COc2c(N3CCN(CC(=O)O)CC3)c(F)cc3c(=O)c(C(=O)O)cn1c23` [Example 45], the MIC [1] is reported as 0.39 µg/mL (≈ 0.96 µM), the MIC [2] is reported as 6.25 µg/mL (≈ 15.4 µM) and the MIC [3] is reported as 0.2 µg/mL (≈ 0.492 µM). For the same compound, the MIC [4] was 0.1 µg/mL (≈ 0.246 µM), the MIC [5] was 0.78 µg/mL (≈ 1.92 µM) and the MIC [6] was 0.05 µg/mL (≈ 0.123 µM). It also gave an MIC [7, 22] of 1.56 µg/mL (≈ 3.84 µM), an MIC (Escherichia coli NR 2630) of 0.1 µg/mL (≈ 0.246 µM) and an MIC [8] of 3.13 µg/mL (≈ 7.7 µM). For the same compound, the MIC [9] was 12.5 µg/mL (≈ 30.8 µM), the MIC [10, 24] was 0.78 µg/mL (≈ 1.92 µM) and the MIC [11] was 12.5 µg/mL (≈ 30.8 µM). For the same compound, the MIC [12, 23] was 3.13 µg/mL (≈ 7.7 µM), the MIC [13] was 0.78 µg/mL (≈ 1.92 µM) and the MIC [14] was 0.1 µg/mL (≈ 0.246 µM). For the same compound, the MIC [15] was 0.2 µg/mL (≈ 0.492 µM), the MIC [16] was 0.78 µg/mL (≈ 1.92 µM) and the MIC [17] was 0.05 µg/mL (≈ 0.123 µM). It also gave an MIC [18] of 50 µg/mL (≈ 123 µM), an MIC [19] of 0.39 µg/mL (≈ 0.96 µM) and an MIC [20] of 3.13 µg/mL (≈ 7.7 µM). It also gave an MIC [21] of 0.1 µg/mL (≈ 0.246 µM).
